Data taken from PMC12136037, “Type II kinase inhibitors that target Parkinson’s disease–associated LRRK2” (Science Advances, 2025).
Read-outs that look alike come from different tables or passages of the source.

What was measured:
Assay in all cases: DSF 100 kinase selectivity screen;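 further: compound tested at 20 µM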
Type in all cases: binding
[1] = biological target: T1, ~100 representative kinases (Homo sapiens, UniProt Q9Y243); conditions: Protein AKT3; average of three replicates
T1 construct: Recombinant protein kinase domains with a concentration of 2 μM
T1 sequence (Q9Y243 whole entry, the tested form may be a part): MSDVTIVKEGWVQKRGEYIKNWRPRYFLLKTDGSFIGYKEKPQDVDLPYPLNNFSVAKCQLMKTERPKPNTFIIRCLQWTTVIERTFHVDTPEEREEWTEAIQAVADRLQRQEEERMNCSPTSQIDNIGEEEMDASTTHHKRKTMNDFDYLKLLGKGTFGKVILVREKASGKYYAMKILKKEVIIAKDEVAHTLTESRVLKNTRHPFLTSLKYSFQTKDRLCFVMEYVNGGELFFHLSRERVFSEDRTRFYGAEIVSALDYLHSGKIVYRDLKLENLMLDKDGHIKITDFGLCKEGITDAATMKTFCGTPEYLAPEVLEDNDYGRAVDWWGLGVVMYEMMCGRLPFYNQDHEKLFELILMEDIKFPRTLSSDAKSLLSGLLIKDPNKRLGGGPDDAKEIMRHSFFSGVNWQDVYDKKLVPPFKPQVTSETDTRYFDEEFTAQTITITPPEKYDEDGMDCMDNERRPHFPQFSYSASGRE
How it was run: (§1)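 Each kinase domain, at 2 μM, is mixed with 20 μM test compound and SYPRO Orange in Hepes (20 mM, pH 7.5) with 500 mM NaCl. Temperature is then raised at 3°C/min and fluorescence-monitored unfolding yields the melting temperature change, ΔTm in degrees Celsius.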

[2] = biological target: T2, ~100 representative kinases (Homo sapiens, UniProt P11362); conditions: protein FGFR1; average of three replicates
T2 construct: Recombinant protein kinase domains with a concentration of 2 μM
T2 sequence (P11362 22-822): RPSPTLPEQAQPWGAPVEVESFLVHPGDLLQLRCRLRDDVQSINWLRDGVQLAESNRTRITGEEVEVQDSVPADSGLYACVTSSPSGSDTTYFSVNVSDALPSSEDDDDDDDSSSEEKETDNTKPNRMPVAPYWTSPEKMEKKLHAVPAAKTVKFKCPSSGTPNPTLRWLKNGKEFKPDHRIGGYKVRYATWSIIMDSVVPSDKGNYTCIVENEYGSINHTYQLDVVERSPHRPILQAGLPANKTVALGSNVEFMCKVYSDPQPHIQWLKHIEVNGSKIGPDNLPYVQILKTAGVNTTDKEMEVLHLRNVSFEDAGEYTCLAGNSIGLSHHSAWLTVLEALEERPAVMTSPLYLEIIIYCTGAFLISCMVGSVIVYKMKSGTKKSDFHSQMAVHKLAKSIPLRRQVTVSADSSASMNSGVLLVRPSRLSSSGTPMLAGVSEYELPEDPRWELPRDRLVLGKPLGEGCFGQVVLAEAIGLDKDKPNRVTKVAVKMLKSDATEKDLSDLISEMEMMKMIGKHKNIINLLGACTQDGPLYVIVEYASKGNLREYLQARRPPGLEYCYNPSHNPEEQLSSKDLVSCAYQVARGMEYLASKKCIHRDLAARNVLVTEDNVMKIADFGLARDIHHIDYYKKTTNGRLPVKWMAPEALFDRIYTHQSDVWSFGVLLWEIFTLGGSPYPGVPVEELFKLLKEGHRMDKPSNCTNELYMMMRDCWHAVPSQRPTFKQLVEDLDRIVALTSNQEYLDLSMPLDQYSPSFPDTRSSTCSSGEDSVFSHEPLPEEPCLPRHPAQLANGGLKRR
How it was run: as §1

[3] = biological target: T3, ~100 representative kinases (Homo sapiens, UniProt Q12866); conditions: protein MERTK; average of three replicates
T3 construct: Recombinant protein kinase domains with a concentration of 2 μM
T3 sequence (Q12866 21-999): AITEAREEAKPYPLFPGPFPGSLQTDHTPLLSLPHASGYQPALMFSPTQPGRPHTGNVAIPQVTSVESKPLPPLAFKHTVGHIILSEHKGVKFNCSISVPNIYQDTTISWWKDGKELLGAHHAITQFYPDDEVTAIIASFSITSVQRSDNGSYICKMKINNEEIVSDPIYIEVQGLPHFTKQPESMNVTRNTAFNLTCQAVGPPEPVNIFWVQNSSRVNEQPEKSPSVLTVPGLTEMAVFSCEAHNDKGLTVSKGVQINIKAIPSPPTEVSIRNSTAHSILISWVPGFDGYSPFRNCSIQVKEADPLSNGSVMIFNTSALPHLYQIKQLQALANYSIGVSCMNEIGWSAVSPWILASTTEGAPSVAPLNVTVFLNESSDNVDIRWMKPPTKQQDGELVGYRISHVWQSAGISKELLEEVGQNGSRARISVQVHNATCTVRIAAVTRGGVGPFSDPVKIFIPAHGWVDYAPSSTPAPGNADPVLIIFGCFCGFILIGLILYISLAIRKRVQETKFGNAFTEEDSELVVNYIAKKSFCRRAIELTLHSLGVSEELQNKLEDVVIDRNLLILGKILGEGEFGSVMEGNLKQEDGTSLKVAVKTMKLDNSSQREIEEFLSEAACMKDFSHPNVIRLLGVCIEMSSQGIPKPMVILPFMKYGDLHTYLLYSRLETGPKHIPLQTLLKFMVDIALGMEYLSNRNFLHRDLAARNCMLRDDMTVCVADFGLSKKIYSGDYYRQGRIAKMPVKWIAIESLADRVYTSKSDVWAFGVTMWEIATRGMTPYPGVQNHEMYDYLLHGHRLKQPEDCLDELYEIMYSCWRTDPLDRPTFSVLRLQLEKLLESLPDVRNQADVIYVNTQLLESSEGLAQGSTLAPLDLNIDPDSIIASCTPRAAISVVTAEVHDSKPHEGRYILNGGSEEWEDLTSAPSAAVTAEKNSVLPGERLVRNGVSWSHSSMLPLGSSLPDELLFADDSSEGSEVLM
How it was run: as §1

[4] = biological target: T4, ~100 representative kinases (Homo sapiens, UniProt P34947); conditions: protein GPRK5; average of three replicates
T4 construct: Recombinant protein kinase domains with a concentration of 2 μM
T4 sequence (P34947 whole entry, the tested form may be a part): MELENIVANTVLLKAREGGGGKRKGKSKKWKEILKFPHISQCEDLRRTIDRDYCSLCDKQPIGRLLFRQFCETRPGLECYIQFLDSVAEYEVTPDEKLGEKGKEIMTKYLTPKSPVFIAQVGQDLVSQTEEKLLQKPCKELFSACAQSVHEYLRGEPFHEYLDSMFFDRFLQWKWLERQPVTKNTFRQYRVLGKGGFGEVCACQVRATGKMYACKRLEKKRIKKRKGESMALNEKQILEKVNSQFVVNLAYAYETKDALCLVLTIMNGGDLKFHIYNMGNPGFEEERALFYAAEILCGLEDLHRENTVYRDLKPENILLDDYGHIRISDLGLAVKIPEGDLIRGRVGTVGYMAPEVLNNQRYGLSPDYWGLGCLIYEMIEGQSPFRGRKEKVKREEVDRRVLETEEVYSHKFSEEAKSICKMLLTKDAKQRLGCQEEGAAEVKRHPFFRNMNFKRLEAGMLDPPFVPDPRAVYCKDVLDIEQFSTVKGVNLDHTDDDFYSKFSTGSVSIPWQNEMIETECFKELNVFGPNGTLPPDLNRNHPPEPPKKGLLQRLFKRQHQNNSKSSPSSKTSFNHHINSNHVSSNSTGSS
How it was run: as §1

[5] = biological target: T5, ~100 representative kinases (Homo sapiens, UniProt Q13554); conditions: Protein CAMK2B; average of three replicates
T5 construct: Recombinant protein kinase domains with a concentration of 2 μM
T5 sequence (Q13554 whole entry, the tested form may be a part): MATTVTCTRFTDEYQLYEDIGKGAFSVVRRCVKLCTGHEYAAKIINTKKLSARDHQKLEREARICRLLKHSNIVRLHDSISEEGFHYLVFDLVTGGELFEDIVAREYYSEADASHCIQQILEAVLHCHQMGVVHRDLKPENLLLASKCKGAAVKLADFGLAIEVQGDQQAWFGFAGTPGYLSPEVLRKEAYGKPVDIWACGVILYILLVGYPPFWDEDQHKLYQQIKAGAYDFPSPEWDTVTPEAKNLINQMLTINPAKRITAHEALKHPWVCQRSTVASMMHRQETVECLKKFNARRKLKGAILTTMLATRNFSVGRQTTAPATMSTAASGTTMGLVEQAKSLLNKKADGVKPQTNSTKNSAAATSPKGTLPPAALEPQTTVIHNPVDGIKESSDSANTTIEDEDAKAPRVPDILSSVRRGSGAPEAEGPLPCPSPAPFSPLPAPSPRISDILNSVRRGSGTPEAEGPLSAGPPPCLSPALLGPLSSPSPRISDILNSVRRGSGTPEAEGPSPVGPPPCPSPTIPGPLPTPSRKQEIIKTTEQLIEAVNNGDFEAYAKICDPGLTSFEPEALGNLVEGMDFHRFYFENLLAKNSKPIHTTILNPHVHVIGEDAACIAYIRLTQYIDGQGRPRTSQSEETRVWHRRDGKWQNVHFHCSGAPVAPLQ
How it was run: as §1

[6] = biological target: T6, ~100 representative kinases (Homo sapiens, UniProt O94804); conditions: Protein STK10; DSF; average of three replicates
T6 construct: Recombinant protein kinase domains with a concentration of 2 μM
T6 sequence (O94804 whole entry, the tested form may be a part): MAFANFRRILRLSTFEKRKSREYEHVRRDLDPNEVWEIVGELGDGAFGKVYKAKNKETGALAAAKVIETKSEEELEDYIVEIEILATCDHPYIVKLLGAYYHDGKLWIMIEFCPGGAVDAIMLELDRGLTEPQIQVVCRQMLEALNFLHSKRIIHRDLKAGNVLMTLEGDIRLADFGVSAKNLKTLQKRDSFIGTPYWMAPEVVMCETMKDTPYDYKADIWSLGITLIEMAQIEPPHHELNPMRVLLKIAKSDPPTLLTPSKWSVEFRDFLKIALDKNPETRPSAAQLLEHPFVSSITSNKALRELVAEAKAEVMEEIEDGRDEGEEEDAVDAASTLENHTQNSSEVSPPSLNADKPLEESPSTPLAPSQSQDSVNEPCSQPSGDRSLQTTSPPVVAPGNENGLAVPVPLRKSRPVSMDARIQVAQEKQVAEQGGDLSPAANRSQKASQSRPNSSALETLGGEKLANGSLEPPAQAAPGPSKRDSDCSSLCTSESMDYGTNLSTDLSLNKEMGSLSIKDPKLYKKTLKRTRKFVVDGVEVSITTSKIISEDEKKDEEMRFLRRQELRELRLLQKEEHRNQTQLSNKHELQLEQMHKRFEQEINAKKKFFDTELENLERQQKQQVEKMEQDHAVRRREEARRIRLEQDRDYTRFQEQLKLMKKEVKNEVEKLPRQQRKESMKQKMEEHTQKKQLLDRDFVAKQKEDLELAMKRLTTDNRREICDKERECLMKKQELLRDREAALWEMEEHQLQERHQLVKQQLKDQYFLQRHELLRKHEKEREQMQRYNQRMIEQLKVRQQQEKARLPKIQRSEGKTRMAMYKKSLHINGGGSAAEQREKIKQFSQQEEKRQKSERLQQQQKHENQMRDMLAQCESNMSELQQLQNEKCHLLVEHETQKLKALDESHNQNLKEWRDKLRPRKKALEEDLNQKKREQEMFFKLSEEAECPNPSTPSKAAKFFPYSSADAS
How it was run: as §1

[7] = biological target: T7, ~100 representative kinases (Homo sapiens, UniProt Q9UEE5); conditions: Protein STK17A; DSF; average of three replicates
T7 construct: Recombinant protein kinase domains with a concentration of 2 μM
T7 sequence (Q9UEE5 1-414): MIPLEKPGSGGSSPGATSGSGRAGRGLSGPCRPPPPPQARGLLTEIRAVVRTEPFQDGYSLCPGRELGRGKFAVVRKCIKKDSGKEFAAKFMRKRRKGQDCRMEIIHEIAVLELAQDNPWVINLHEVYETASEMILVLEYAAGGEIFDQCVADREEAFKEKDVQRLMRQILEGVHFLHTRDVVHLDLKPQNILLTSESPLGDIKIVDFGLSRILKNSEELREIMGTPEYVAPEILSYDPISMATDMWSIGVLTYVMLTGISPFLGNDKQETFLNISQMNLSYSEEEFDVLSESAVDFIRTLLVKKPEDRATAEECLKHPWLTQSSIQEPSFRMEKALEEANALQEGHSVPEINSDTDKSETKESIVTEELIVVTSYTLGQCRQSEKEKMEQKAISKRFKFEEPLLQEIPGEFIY
How it was run: as §1

[8] = biological target: T8, ~100 representative kinases (Homo sapiens, UniProt O96013); conditions: protein PAK4; average of three replicates
T8 construct: Recombinant protein kinase domains with a concentration of 2 μM
How it was run: as §1

[9] = biological target: T9, ~100 representative kinases (Homo sapiens, UniProt P15056)
T9 construct: Recombinant protein kinase domains with a concentration of 2 μM
T9 sequence (P15056 whole entry, the tested form may be a part): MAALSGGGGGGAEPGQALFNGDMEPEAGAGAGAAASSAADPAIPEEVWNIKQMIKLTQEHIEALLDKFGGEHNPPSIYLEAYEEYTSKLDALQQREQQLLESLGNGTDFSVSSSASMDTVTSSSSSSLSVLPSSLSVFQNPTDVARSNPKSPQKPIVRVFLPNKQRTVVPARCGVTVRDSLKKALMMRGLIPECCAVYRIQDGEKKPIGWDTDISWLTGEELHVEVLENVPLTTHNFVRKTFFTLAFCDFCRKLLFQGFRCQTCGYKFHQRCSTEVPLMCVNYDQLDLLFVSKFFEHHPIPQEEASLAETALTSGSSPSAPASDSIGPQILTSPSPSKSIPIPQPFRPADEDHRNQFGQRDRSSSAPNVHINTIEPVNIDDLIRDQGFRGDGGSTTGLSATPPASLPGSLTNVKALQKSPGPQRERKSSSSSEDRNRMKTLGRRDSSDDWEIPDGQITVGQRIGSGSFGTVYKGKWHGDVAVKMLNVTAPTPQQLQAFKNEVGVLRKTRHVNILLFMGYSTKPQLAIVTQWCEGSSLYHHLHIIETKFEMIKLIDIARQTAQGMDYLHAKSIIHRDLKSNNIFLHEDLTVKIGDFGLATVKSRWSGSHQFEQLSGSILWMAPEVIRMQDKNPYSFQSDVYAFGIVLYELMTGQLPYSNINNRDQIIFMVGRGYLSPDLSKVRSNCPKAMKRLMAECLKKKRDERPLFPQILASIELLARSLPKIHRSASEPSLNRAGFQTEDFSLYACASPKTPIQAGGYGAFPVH
How it was run: as §1

[10] = biological target: T10, ~100 representative kinases (Homo sapiens, UniProt O94768); conditions: Protein STK17B; DSF; average of three replicates
T10 construct: Recombinant protein kinase domains with a concentration of 2 μM
T10 sequence (O94768 1-372): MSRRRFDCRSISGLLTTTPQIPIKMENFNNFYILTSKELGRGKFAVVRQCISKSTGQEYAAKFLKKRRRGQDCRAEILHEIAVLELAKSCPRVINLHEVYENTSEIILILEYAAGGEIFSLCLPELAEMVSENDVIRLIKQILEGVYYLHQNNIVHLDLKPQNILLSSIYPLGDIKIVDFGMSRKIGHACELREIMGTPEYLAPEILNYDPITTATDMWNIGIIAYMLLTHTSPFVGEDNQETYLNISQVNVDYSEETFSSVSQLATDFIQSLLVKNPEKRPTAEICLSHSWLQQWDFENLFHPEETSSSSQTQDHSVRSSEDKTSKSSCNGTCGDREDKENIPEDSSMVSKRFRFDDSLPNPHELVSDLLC
How it was run: as §1

[11] = biological target: T11, ~100 representative kinases (Homo sapiens, UniProt Q8TDX7); conditions: protein NEK7; average of three replicates
T11 construct: Recombinant protein kinase domains with a concentration of 2 μM
T11 sequence (Q8TDX7 whole entry, the tested form may be a part): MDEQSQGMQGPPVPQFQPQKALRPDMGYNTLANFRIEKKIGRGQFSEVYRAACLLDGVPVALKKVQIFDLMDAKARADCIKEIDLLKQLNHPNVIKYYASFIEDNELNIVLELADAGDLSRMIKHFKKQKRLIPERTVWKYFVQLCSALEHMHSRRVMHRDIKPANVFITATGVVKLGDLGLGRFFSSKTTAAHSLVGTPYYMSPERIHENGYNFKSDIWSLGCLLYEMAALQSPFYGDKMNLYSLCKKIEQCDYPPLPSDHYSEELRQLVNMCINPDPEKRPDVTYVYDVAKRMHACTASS
How it was run: as §1

[12] = Protein BRAF, average of three replicates

SMILES: Cc1cc(NC(=O)C2(C(=O)Nc3cccc(-c4c[nH]c5ncnc(N6CCOCC6)c45)c3)CC2)ccc1F [Compound 20]
- dTm [1]: 0.62 K
- dTm [2]: 2.46 K
- dTm [3]: 2.15 K
- dTm [4]: 1.05 K
- dTm [5]: 1.78 K
- dTm [6]: 16.12 K
- dTm [7]: 2.25 K
- dTm [8]: -0.11 K
- dTm [9, 12]: 13.62 K
- dTm [10]: 10.15 K
- dTm [11]: 0.98 K

SMILES: CCNc1nc(Nc2cc(F)c(C(=O)N3CCOCC3)cc2OC)ncc1C(F)(F)F [GNE-7915]
- dTm [1]: -0.31 K
- dTm [2]: 0.25 K
- dTm [3]: 2.33 K
- dTm [4]: 0.32 K
- dTm [5]: 0.10 K
- dTm [6]: -0.11 K
- dTm [7]: 0.32 K
- dTm [8]: 1.08 K
- dTm [9, 12]: 1.48 K
- dTm [10]: 1.02 K
- dTm [11]: 0.34 K

SMILES: CC(C)(C)c1cccc(NC(=O)C2(C(=O)Nc3cccc(-c4c[nH]c5ncnc(N6CCOCC6)c45)c3)CC2)c1 [Compound 22]
- dTm [1]: 0.15 K
- dTm [2]: 1.53 K
- dTm [3]: 2.25 K
- dTm [4]: -0.26 K
- dTm [5]: 2.01 K
- dTm [6]: 15.18 K
- dTm [7]: -0.64 K
- dTm [8]: 0.76 K
- dTm [9, 12]: 15.10 K
- dTm [10]: 0.00 K
- dTm [11]: 0.18 K

SMILES: CN[C@@H]1C[C@H]2O[C@@](C)([C@@H]1OC)n1c3ccccc3c3c4c(c5c6ccccc6n2c5c31)C(=O)NC4 [Staurosporine]
- dTm [3]: 6.40 K
- dTm [4]: 7.02 K
- dTm [6]: 22.21 K

SMILES: O=C(Nc1cccc(-c2c[nH]c3ncnc(N4CCOCC4)c23)c1)C1(C(=O)Nc2ccc(F)cc2F)CC1 [Compound 23]
- dTm [1]: 0.68 K
- dTm [2]: 1.14 K
- dTm [3]: 0.52 K
- dTm [4]: -0.45 K
- dTm [5]: 0.18 K
- dTm [6]: 9.26 K
- dTm [7]: -0.31 K
- dTm [8]: -0.00913 K
- dTm [9, 12]: 9.00 K
- dTm [10]: 3.82 K
- dTm [11]: 0.03 K

SMILES: CC(=O)N1CCN(c2nc(Cl)nc3[nH]cc(-c4cccc(NC(=O)Nc5cc(C(C)(C)C)nn5-c5ccc(C)cc5)c4)c23)CC1 [Compound 31]
- dTm [1]: -0.49 K
- dTm [2]: 1.76 K
- dTm [3]: 0.10 K
- dTm [4]: -1.15 K
- dTm [5]: -1.59 K
- dTm [6]: 13.28 K
- dTm [7]: -0.15 K
- dTm [8]: 0.48 K
- dTm [9, 12]: 4.38 K
- dTm [10]: 2.85 K
- dTm [11]: -0.91 K

SMILES: O=C(Nc1cc(F)cc(Br)c1)C1(C(=O)Nc2cccc(-c3c[nH]c4ncnc(N5CCOCC5)c34)c2)CC1 [Compound 27]
- dTm [1]: 0.53 K
- dTm [2]: 0.76 K
- dTm [3]: 0.27 K
- dTm [4]: 0.40 K
- dTm [5]: 1.75 K
- dTm [6]: 10.11 K
- dTm [7]: 1.21 K
- dTm [8]: 0.52 K
- dTm [9, 12]: 6.66 K
- dTm [10]: 0.00 K
- dTm [11]: -0.08 K

SMILES: Cc1ccc(C(=O)Nc2ccc(CN3CCN(C)CC3)c(C(F)(F)F)c2)cc1C#Cc1cnc2[nH]ncc2c1 [GZD-824, reference compound]
- dTm [1]: -0.88 K
- dTm [2]: 12.20 K
- dTm [3]: 5.77 K
- dTm [4]: 0.29 K
- dTm [5]: 0.11 K
- dTm [7]: 0.16 K
- dTm [8]: 3.27 K
- dTm [9]: 38.00 K
- dTm [10]: -1.15 K
- dTm [11]: 1.00 K

SMILES: O=C(Nc1ccccc1)C1(C(=O)Nc2cccc(-c3c[nH]c4ncnc(N5CCOCC5)c34)c2)CC1 [Compound 12]
- dTm [1]: 0.16 K
- dTm [2]: 1.41 K
- dTm [3]: 2.64 K
- dTm [4]: 0.86 K
- dTm [5]: 0.82 K
- dTm [6]: 11.85 K
- dTm [7]: 0.26 K
- dTm [8]: -0.15 K
- dTm [9, 12]: 6.85 K
- dTm [10]: 7.92 K
- dTm [11]: -0.19 K

SMILES: CNC(=O)c1cc(Oc2ccc(NC(=O)Nc3cc(C(C)(C)C)nn3-c3ccc4ncccc4c3)c(F)c2)ccn1 [Rebastinib, reference compound]
- dTm [1]: -0.41 K
- dTm [2]: 5.75 K
- dTm [4]: 0.59 K
- dTm [5]: 0.87 K
- dTm [6]: 16.27 K
- dTm [7]: 3.53 K
- dTm [8]: 4.23 K
- dTm [10]: 6.81 K
- dTm [11]: 3.06 K

SMILES: COc1cc2c(Oc3ccc(NC(=O)C4(C(=O)Nc5ccc(F)cc5)CC4)cc3F)ccnc2cc1OCCCN1CCOCC1 [Foretinib, reference compound]
- dTm [1]: -0.34 K
- dTm [2]: 5.33 K
- dTm [3]: 13.18 K
- dTm [4]: 0.60 K
- dTm [5]: 0.83 K
- dTm [6]: 16.81 K
- dTm [7]: -0.14 K
- dTm [8]: 0.34 K
- dTm [9, 12]: 6.96 K
- dTm [10]: 3.63 K
- dTm [11]: -0.49 K

SMILES: Cc1ccc(NC(=O)C2(C(=O)Nc3cccc(-c4c[nH]c5ncnc(N6CCOCC6)c45)c3)CC2)cc1 [Compound 14]
- dTm [1]: 0.32 K
- dTm [2]: 0.77 K
- dTm [3]: 0.92 K
- dTm [4]: 0.90 K
- dTm [5]: 0.96 K
- dTm [6]: 11.44 K
- dTm [7]: -0.61 K
- dTm [8]: -0.55 K
- dTm [9, 12]: 8.39 K
- dTm [10]: 4.70 K
- dTm [11]: -0.37 K

SMILES: Cc1ccc(C(=O)Nc2ccc(CN3CCN(C)CC3)c(C(F)(F)F)c2)cc1C#Cc1cnc2cccnn12 [Ponatinib, reference compound]
- dTm [2]: 11.47 K
- dTm [3]: 4.58 K
- dTm [9, 12]: 36.88 K
- dTm [10]: -1.68 K
- dTm [11]: 0.07 K

SMILES: O=C(Nc1ccc(Cl)cc1)C1(C(=O)Nc2cccc(-c3c[nH]c4ncnc(N5CCOCC5)c34)c2)CC1 [Compound 13]
- dTm [1]: 0.45 K
- dTm [2]: 1.36 K
- dTm [3]: 3.45 K
- dTm [4]: 1.38 K
- dTm [5]: 1.60 K
- dTm [6]: 14.64 K
- dTm [7]: 1.64 K
- dTm [8]: 1.17 K
- dTm [9, 12]: 10.34 K
- dTm [10]: 8.61 K
- dTm [11]: 1.06 K
